Reference: patent US9567336B2, “Conjugated TLR7 and/or TLR8 and TLR2 agonists” (CAYLA, priority 2012, dated 2017)

Assays:
[1] = molecular target: T1, murine TLR7 (Mus musculus, UniProt P58681); assay: HEK-Blue mTLR7 NF-κB/AP-1 SEAP reporter cell assay; assay type: cell-based; settings: HEK-Blue mTLR7 reporter cells, 10 μg/mL to 10 pg/ml, 24 hours, OD at 655 nm; FIGS. 2A, 2B
T1 construct: host or cells: HEK293 (HEK-Blue mTLR7)
T1 sequence (P58681 27-1050): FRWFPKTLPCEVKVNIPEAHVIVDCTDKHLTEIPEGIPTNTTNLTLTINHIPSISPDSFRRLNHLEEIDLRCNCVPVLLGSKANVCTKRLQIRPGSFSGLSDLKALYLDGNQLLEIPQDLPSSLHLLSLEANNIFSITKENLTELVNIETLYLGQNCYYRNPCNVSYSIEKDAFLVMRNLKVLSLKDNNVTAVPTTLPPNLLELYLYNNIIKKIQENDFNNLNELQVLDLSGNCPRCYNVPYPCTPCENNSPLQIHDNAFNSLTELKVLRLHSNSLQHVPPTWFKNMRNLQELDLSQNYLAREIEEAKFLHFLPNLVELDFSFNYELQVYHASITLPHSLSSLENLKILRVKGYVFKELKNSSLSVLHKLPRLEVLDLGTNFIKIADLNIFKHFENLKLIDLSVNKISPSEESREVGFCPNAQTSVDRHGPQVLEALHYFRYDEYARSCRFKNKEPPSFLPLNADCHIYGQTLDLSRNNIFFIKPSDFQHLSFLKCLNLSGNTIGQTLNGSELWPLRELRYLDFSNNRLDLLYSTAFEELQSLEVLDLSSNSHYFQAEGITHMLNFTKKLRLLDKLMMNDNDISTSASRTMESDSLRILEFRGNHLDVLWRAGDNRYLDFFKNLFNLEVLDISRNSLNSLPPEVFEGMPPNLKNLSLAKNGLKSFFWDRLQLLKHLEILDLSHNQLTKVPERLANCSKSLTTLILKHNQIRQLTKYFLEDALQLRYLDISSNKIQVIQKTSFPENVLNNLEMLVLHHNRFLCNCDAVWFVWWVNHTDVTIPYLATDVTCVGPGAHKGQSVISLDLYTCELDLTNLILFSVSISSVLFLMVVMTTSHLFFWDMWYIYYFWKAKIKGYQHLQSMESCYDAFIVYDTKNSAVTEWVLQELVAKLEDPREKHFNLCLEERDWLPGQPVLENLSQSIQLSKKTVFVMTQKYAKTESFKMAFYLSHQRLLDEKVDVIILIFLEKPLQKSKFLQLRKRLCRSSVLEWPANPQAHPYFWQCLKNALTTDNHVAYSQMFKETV
Protocol: (§1) Some conjugated compounds of the invention were tested for their ability to activate TLR7 and TLR2 receptor signaling. Cell-based assays were carried out using TLR7 and TLR2 reporter cell lines (InvivoGen). The reporter cell lines are engineered HEK293 cells, a human embryonic kidney cell line (ATCC, CRL-1573) that stably express either murine TLR7 (HEK-Blue™ mTLR7) or human TLR7 (HEK-Blue™ hTLR7) or murine TLR2 (HEK-Blue™ mTLR2) or human TLR2 (HEK-Blue™ hTLR2) with an NF-κB-inducible secreted embryonic alkaline phosphatase (SEAP) as the reporter gene. The SEAP reporter gene is placed under the control of the NF-κB and AP-inducible promoter. Stimulation with the corresponding TLR ligand activates NF-κB and AP-1, which induces the production of SEAP. Detection of SEAP is measured following culturing cells in HEK-Blue™ Detection media (InvivoGen). HEK-Blue™ Detection contains a SEAP substrate, which upon hydrolysis by SEAP produces a colorimetric change allowing for detection of SEAP as the protein is secreted. […] These assays were carried out using RAW-Blue™ Cells (InvivoGen), derived from RAW 264.7 mouse leukemic monocytic macrophage cell line (ATCC, CRL 2278) stably overexpressing a NF-κB/AP-1 inducible SEAP reporter constructs.
(§2) To perform the assay, cells were seeded on 96 well microliter plates at 50,000 or 100,000 cells per well for HEK-Blue™ Cells and RAW-Blue™ Cells respectively, and cultured at 37° C. in the presence of the conjugated compounds. The conjugated compounds were prepared as follows: First, stock solutions of the small molecule conjugated compounds of the invention were prepared in ethanol or water to a concentration of 10 mg/ml. A working dilution of the conjugated TLR7-TLR2 small molecules was made up in water and added to cells at a final range of concentrations from 10 μg/mL to 10 pg/ml. The working dilutions of the conjugated TLR7-TLR2 small molecules as the stated concentrations were directly added to the reporter cell lines and incubated at 37° C. for 24 hours. After 24 hours of incubation, the effect on reporter gene activity was determined by reading the OD at 655 nm using iMark™ Microplate Reader (BIO-RAD).
(§3) The conjugated compounds were tested alone for their ability to specifically activate TLR7 and TLR2, alongside the known TLR7 activators R848 or CL264 (InvivoGen) and the TLR2 agonists Pam2CSK4 or Pam3CSK4 (InvivoGen). The specificity of the TLR activity was determined by use of reporter cell lines to the other TLRs (data not shown). […] The molecules show a tendency to activate mouse TLR7 with greater sensitivity than human TLR7. […] Furthermore, dose-dependent responses of the conjugated compounds indicate significant TLR activities of TLR7 and TLR2 compared to the corresponding controls.

[2] = system: NF-κB in RAW-Blue™ Cells (RAW 264.7, endogenous TLR7 and TLR2); assay: RAW-Blue Cells NF-κB/AP-1 inducible SEAP reporter assay; assay type: cell-based, mouse; settings: murine monocytic macrophage cell line RAW 264.7, 24 hours, OD at 655 nm; FIGS. 5A, 5B
Protocol: as §1, §2, §3

[3] = system: B16-F1 cells; assay: B16-F1 allograft tumor mouse model, intra-tumoral injections; assay type: in vivo, C57BL/6 mice; settings: 3 intra-tumoral injections
Protocol: To investigate whether administering in vivo a therapeutically effective amount of a composition concerned by the invention into a tumor environment affects tumor growth, C57BL/6 mice (Janvier S.A.S.) were shaved (on their backs) and were injected subcutaneously with approximately 50 μl (5×10^5) of viable B16-F1 cells (ATCC, CRL-6323) under anesthesia, using 7 mice per group. Once the tumor volume reached about 5 mm in diameter, around day 7 after tumor cells were grafted, the mice were divided into 2 groups. A first group (control) received intra-tumoral injections of vehicle (Glucose 5% ethanol 8% that is often used to facilitate drug solubilization and so enhance delivery), for a total of 3 injections. All animal work was carried out at the animal facility at the Institut de Pharmacologie et de Biologie Structurale (IPBS) in Toulouse, in accordance with institutional guidelines. […] By day 51 following the tumor cell graft, 60% of mice in the CL401 conjugated TLR7-TLR2 small molecule treated group were still alive. In contrast, by day 26, there was no survival of mice from the control group of vehicle treated. Tumor growth was monitored and measured with calipers after day 5 of grafting tumor cells into mice and then every 2 days after. […] Tumor volume in mm^3 was determined according to the formula V=W^2×L/2, where L=length (mm) and W=width (mm)

SMILES: CCCCCCCCCCCCCCCC(=O)OCC(CSC[C@H](N)C(=O)Nc1ccc(Cn2c(O)nc3c(N)nc(NCCCC)nc32)cc1)OC(=O)CCCCCCCCCCCCCCC (mixture of isomers) [CL401, (R)-3-(2-amino-3-(4-((6-amino-2-(butylamino)-8-hydroxy-9H-purin-9-yl)methyl)phenylamino)-3-oxopropylthio)propane-1,2-diyl dipalmitate]
- ability to activate TLR7 receptors (murine TLR7) [1]: activate TLR7 receptors
- induction of NF-κB in RAW-Blue cells [2]: activate NF-κB
- mice still alive (survival) ([3]; by day 51 following the tumor cell graft, FIG. 6B): 60%
- tumor growth ([3]; compared to vehicle control mice, FIG. 6A): significantly reduced
